Laboratory results from ChEMBL document CHEMBL3988442, “University of Dundee, Small-Polar-MMV Screening Library” (2021).

Key:
[1] = molecular target: Tryptophan--tRNA ligase (Mycobacterium tuberculosis (strain ATCC 25618 / H37Rv), UniProt P9WFT3); assay: Biochemical assay for Mt-TrpRS; format: functional
[2] = molecular target: ClpP1P2 (Mycobacterium tuberculosis (strain ATCC 25618 / H37Rv), UniProt P9WPC3+P9WPC5); assay: in vitro assay to detect presence of AMC directly proportional to the activity of ClpP1P2. GHDDI collaboration.; format: functional
Sequence of ClpP1P2 (P9WPC5 whole entry): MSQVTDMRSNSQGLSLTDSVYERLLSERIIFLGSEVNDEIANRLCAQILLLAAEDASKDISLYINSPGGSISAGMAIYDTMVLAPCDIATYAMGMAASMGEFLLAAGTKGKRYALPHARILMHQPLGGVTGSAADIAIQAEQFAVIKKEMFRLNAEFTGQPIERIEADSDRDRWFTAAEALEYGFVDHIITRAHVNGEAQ
Sequence of ClpP1P2 (P9WPC3 whole entry): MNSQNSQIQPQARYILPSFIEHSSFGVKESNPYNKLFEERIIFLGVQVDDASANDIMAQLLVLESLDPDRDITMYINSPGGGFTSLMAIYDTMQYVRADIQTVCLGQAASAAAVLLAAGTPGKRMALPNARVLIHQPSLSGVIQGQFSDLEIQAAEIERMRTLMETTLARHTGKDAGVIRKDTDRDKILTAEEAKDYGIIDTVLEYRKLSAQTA

[3] = In vitro enzyme assay to detect hydrolysis of chlorophenol red-beta-D-[…] directly proportional to the number of Toxoplasma stably expressing beta-galactosidase; format: functional, organism-based, Toxoplasma gondii; settings: Toxoplasma gondii
[4] = microbe, parasite or virus in culture; settings: Mycobacterium tuberculosis, 96 h, read-out: pIC50 (converted)
[5] = microbe, parasite or virus in culture; settings: Mycobacterium tuberculosis, 72 h, read-out: pIC50 (converted)
[6] = tested on: Schistosoma mansoni; assay: High throughput screening of compounds against Schistosoma mansoni motility; format: functional; parameters: dose or concentration left out as unconfirmed
[7] = tested on: Plasmodium falciparum; assay: Calibr Malaria Delayed Death Assay SOP; format: functional, organism-based

Sequence of Tryptophan--tRNA ligase (P9WFT3 whole entry): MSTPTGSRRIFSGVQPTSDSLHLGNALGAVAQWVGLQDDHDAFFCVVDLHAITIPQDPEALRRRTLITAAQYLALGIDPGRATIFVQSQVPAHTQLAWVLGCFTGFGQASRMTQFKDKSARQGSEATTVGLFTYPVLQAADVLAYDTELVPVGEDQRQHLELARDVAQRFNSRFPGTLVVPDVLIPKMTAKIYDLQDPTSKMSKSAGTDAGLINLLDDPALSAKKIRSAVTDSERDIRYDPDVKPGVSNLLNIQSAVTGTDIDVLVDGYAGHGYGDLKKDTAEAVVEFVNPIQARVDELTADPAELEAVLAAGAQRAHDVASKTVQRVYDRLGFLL

Row | Compound | IC50 [1] | further results
1 | COc1ccc2c(c1)C(=O)CC1(CCN(Cc3ccc(F)cc3)CC1)O2 | > 195 µM | IC50 [2]: > 100 µM
2 | NC(=O)CN1CCC2(CC1)CC(=O)c1ccc3ccccc3c1O2 | > 195 µM | IC50 [2]: > 100 µM
3 | CO[C@H]1CN(S(=O)(=O)c2ccc(F)cc2)C[C@@]12CCCO2 | > 195 µM | IC50 [2]: > 100 µM
4 | COCCNc1nnc(-c2ccc(C)nc2)s1 | > 195 µM | IC50 [3]: > 50.1 µM
5 | COCCC(=O)N1CCC(C(=O)c2cc(C)cnc2N)CC1 | > 195 µM | IC50 [4]: > 50.1 µM; IC50 [5]: > 50.1 µM
6 | CC(=O)N1CCCC(c2ccc(Cc3ccccc3)cn2)C1 (centres undefined) | > 195 µM | IC50 [4]: 23.5 µM; IC50 [5]: 15.3 µM
7 | O=C1CN(Cc2nnc(-c3ccc(Br)cc3)o2)CCN1 | > 195 µM | Percent Effect [6]: -48.54%
8 | O=C(CCc1ccsc1)NCC1CCN(c2ccccc2)C1 (centres undefined) | > 195 µM | Percent Effect [6]: 6.73%
9 | CC(Cn1cccn1)NC(=O)Nc1ccc(N(C)C)nc1 (centres undefined) | > 195 µM | Percent Effect [6]: 0.4135%
10 | Cc1cc(NC(=O)NCCc2cccs2)n(C)n1 | > 195 µM | Percent Effect [6]: 9.063%
11 | O=C1CN(Cc2nnc(-c3ccccc3Br)o2)CCN1 | > 195 µM | Percent Effect [6]: 12.25%
12 | O=C(NCCCO)Nc1cccc(Cl)c1F | > 195 µM | Percent Effect [6]: 24.34%
13 | O=C(NCCO)Nc1cccc(Cl)c1SC(F)F | > 195 µM | Percent Effect [6]: -20.44%
14 | Cn1ccnc1-c1cccc(NC(=O)NCCCO)c1 | > 195 µM | Percent Effect [6]: -1.514%
15 | Cc1ccc(NC(=O)Cn2cc(I)cn2)cc1 | > 195 µM | Percent Effect [6]: -1.868%
16 | Cc1ccc(CC(=O)N2CCOC(c3nc(C)n[nH]3)C2)cn1 (centres undefined) | > 195 µM | Percent Effect [6]: 13.87%
17 | N#Cc1cccc(SCCS(N)(=O)=O)c1 | > 195 µM | Percent Effect [6]: -35.02%
18 | CN(CCCC#N)C1CCCN(Cc2noc(C3CC3)n2)C1 (centres undefined) | > 195 µM | Percent Effect [6]: -67.8%
19 | CCc1cnc(CN(C(C)=O)C2CCN(CCS(C)(=O)=O)C2)o1 (centres undefined) | > 195 µM | Percent Effect [6]: -22.31%
20 | CN(Cc1cnn(C)c1)C(=O)NC1CCS(=O)(=O)C1 (centres undefined) | > 195 µM | Percent Effect [6]: -4.908%
21 | Cc1ccc(CNC(=O)Nc2cc(C(F)(F)F)c[nH]c2=O)cn1 | > 195 µM | Percent Effect [6]: -4.568%
22 | Cc1cnn(CC(C)NCc2nc(-c3ccco3)no2)c1 (centres undefined) | > 195 µM | Percent Effect [6]: -25.07%
23 | CCc1nnc2n1CCN(C(=O)c1ccc3[nH]cnc3c1)C2 | > 195 µM | Percent Effect [6]: 19.35%
24 | CN(Cc1cnn(C)c1)C(=O)NC1CCC(O)CC1 (centres undefined) | > 195 µM | Percent Effect [6]: 15.72%
25 | COc1cccc(CNCCc2cc(F)cc3c2OCOC3)c1 | > 195 µM | Percent Effect [6]: 75.77%
26 | CCN1CC[C@@H]2OC[C@H](C(=O)NCc3cccs3)C[C@@H]2C1 | > 195 µM | IC50 [2]: > 100 µM

Row | Compound | IC50 [1] | further results
27 | CCO[C@H]1CC[C@H]2[C@@H]1OCCN2C(=O)COc1ccccc1 | > 195 µM | IC50 [4]: > 50.1 µM; IC50 [5]: > 50.1 µM
28 | Cn1ccc(-c2cc(C(=O)N3CCC(O)CC3)c3ccccn23)n1 | > 195 µM | IC50 [2]: > 100 µM; IC50 [4]: > 50.1 µM; IC50 [5]: > 50.1 µM
29 | OCCNc1nccc(-c2c[nH]nc2-c2ccco2)n1 | > 195 µM | IC50 [3]: > 50.1 µM
30 | Cc1ccc(F)cc1-c1ccc(N)nc1 | > 195 µM | 
31 | O=C(c1ccc[nH]1)N1CCN(CC2CCOc3ccccc3C2)CC1 (centres undefined) | > 195 µM | Percent Effect [6]: -5.036%
32 | O=C(CCc1cc(O)no1)N1CCCC(COc2ccc(F)cc2)C1 (centres undefined) | > 195 µM | Percent Effect [6]: 28.51%
33 | O=C1CC2(CCN(CC3CCOC3)CC2)CN1Cc1cc(F)cc(F)c1 (centres undefined) | > 195 µM | Percent Effect [6]: -23.28%
34 | CC(=O)N1CCN(CC2CCOc3ccccc3C2)CC1 (centres undefined) | > 195 µM | Percent Effect [6]: -45.54%
35 | NC(=O)C1CCN(C(=O)CCn2ccc3cc(Br)ccc32)CC1 | > 195 µM | Percent Effect [6]: -11.99%
36 | Cc1cc(C(F)(F)F)nn1CCCNC(=O)C1CCCO1 (centres undefined) | > 195 µM | 
37 | CC(C)N(C)CC(=O)N(C)C(c1cccc(F)c1)c1ccccn1 (centres undefined) | > 195 µM | 
38 | CC(=O)N(C)C(c1cccc(F)c1)c1ccccn1 (centres undefined) | > 195 µM | 
39 | COCCN1CCC(NCc2ccc(F)cc2F)C1 (centres undefined) | > 195 µM | 
40 | Cc1nn(C)c(C)c1C1COCCN1C(=O)c1ccc(Cl)o1 (centres undefined) | > 195 µM | 
41 | CCc1noc(CN2CCN(c3nccs3)CC2)n1 | > 195 µM | 
42 | Cn1cc(CCN2CCOC(CNc3cccnn3)C2)cn1 (centres undefined) | > 195 µM | 
43 | CCc1nnc(CN2CCCCC2Cn2cncn2)o1 (centres undefined) | > 195 µM | 
44 | CCC(O)CN1CCN(C(=O)c2cc3ccccc3n2CC)CC1 (centres undefined) | > 195 µM | 
45 | CC(C)OCCCNC(=O)CS(=O)(=O)Cc1ccc(Cl)cc1 | > 195 µM | 
46 | CCC(CC)c1nnc(NC(=O)NC(C)Cn2cccn2)s1 (centres undefined) | > 195 µM | 
47 | CN(Cc1cnn(C)c1)C(=O)CN1CCCC(Cn2cncn2)C1 (centres undefined) | > 195 µM | 
48 | CCN(CC1CCOC1)C(=O)c1cc(F)ccc1N1CCN(C)CC1 (centres undefined) | > 195 µM | 
49 | COc1c(CNC2CCCN(c3ncccn3)C2)c(C(C)C)nn1C (centres undefined) | > 195 µM | 
50 | CCN(c1ccc(C(=O)N2CCCC2c2cnn(C)c2)cn1)C(C)C (centres undefined) | > 195 µM | 
51 | CN(CC(=O)Nc1cccnc1)C1CCCN(c2cccnn2)C1 (centres undefined) | > 195 µM | 
52 | O=S1(=O)CCC(N(Cc2nc3ccccc3o2)Cc2cccs2)C1 (centres undefined) | > 195 µM | 

Row | Compound | IC50 [1] | further results
53 | Cc1noc(C)c1CN(Cc1cccs1)C1CCS(=O)(=O)C1 (centres undefined) | > 195 µM | 
54 | CN(C)C(=O)c1cccc(CN2CCN(CCO)CC2)c1 | > 195 µM | IC50 [2]: > 100 µM
55 | NC(=O)C1CCN(C(=O)c2ccn(-c3ccc(F)cc3)n2)CC1 | > 195 µM | 
56 | Cc1nc(C)c(C(=O)NCCNC(=O)Cc2ccc(F)cc2)s1 | > 195 µM | 
57 | Cc1ccc(C(=O)NS(=O)(=O)c2cc(Br)ccc2C)c(=O)[nH]1 | > 195 µM | 
58 | Cc1ccc(C(=O)NS(=O)(=O)c2ccccc2F)c(=O)[nH]1 | > 195 µM | 
59 | Cc1ccc(C(=O)NS(=O)(=O)c2ccccc2Cl)c(=O)[nH]1 | > 195 µM | 
60 | CC1CCN(CCCNC(=O)NC(C)c2nncn2C)CC1 (centres undefined) | > 195 µM | 
61 | COCCN1CCN(CCS(C)(=O)=O)CC1C (centres undefined) | > 195 µM | 
62 | N#Cc1ccc(CN2CCCCC2Cn2cccn2)cc1 (centres undefined) | > 195 µM | 
63 | Cc1nc(C2CCCN2CC(=O)N(C)Cc2ccsc2)no1 (centres undefined) | > 195 µM | 
64 | Cc1nnc2n1CCN(Cc1csc(-c3ncccn3)n1)C2 | > 195 µM | 
65 | Cc1cnn(CC2CCCN2Cc2nnc(C(C)C)o2)c1 (centres undefined) | > 195 µM | 
66 | c1cnnc(N2CCCC(NCc3nc(-c4ccco4)no3)C2)c1 (centres undefined) | > 195 µM | 
67 | COc1ccccc1C1(C(=O)NCCN2CCCCC2)CCOCC1 | > 195 µM | 
68 | Cc1ncsc1C(=O)N(Cc1ccccn1)C1CC1 | > 195 µM | 
69 | CC(NCc1c(C(C)C)nn(C)c1N1CCOCC1)C(=O)N(C)C (centres undefined) | > 195 µM | 
70 | Cc1nn(C)c(N(C)C)c1CNCCS(C)(=O)=O | > 195 µM | 
71 | CCS(=O)(=O)NCCCNCc1c(C)nn(C)c1N(C)C | > 195 µM | 
72 | CCOCCN1CCC(C(=O)c2cc(F)ccc2F)CC1 | > 195 µM | 
73 | CCc1ccc(C(=O)N2CCN(CC(O)CC)CC2)o1 (centres undefined) | > 195 µM | 
74 | CCN(CC)Cc1ccc(C(=O)N2CCN(CC(C)O)CC2)o1 (centres undefined) | > 195 µM | 
75 | Cc1csc(CCNC(=O)NC(C)Cn2cccn2)n1 (centres undefined) | > 195 µM | 
76 | CC(Cn1cccn1)NC(=O)NCCc1ccsc1 (centres undefined) | > 195 µM | 
77 | Cc1ccc(S(=O)(=O)Nc2ccc(=O)n(C)c2)c(Br)c1 | > 195 µM | 
78 | CCn1cnnc1C1CCN(C(=O)c2cc(C)c(C)s2)CC1 | > 195 µM | 

Row | Compound | IC50 [1] | further results
79 | Cc1cc(NC(=O)CNC2CCc3nc(C(C)C)nn3C2)no1 (centres undefined) | > 195 µM | 
80 | Nc1cc2c(nn1)CCN(C(=O)C1CCc3ccccc31)C2 (centres undefined) | > 195 µM | 
81 | Cc1cc(CNC(=O)N(Cc2ccc(F)cc2F)C2CC2)no1 | > 195 µM | 
82 | CCc1ccc(C(=O)N2CCC(c3nncn3CC)CC2)s1 | > 195 µM | 
83 | Cn1cnnc1C1CCN(C(=O)c2cc3c(s2)CCCC3)CC1 | > 195 µM | 
84 | Cc1cnn(CC2CCCN2Cc2nc(N)c3ccccc3n2)c1 (centres undefined) | > 195 µM | 
85 | Fc1ccc(-c2nc(CN3CCCC3Cn3cncn3)co2)cc1 (centres undefined) | > 195 µM | 
86 | Fc1cccc(-c2nc(CN3CCCC3Cn3cccn3)co2)c1 (centres undefined) | > 195 µM | 
87 | Cc1cc(CN2CCN(C(=O)NCc3ccco3)CC2)no1 | > 195 µM | 
88 | CC(C)c1nc(CN2CCC(c3ccnn3CCO)CC2)no1 | > 195 µM | 
89 | CN(C)c1ncccc1CNC(=O)N1CCCC1CN1CCCC1 (centres undefined) | > 195 µM | 
90 | COCCc1noc(CN(C)C2CCCN(c3cccnn3)C2)n1 (centres undefined) | > 195 µM | 
91 | CCn1cnnc1CNC(=O)NC(c1cccs1)C1CCCC1 (centres undefined) | > 195 µM | 
92 | Cc1ncsc1C(=O)NC1CCN(CCC#N)CC1 | > 195 µM | 
93 | Cn1cnnc1C1CCN(C(=O)CCOc2ccc(Cl)cc2)CC1 | > 195 µM | 
94 | Cc1cc(NC(=O)CN2CCc3cncnc3C2)no1 | > 195 µM | 
95 | CN(Cc1nnc2n1CCC2)C(=O)c1ccc2c(c1)OCCO2 | > 195 µM | 
96 | Cc1cc(C)n(CC2CCCN2C(=O)c2c(C)noc2C)n1 (centres undefined) | > 195 µM | 
97 | O=C(COc1cccc(Cl)c1)N1CCOCC1c1ncon1 (centres undefined) | > 195 µM | 
98 | CC(C(=O)NCc1ccc(N2CCCC2)nc1)S(C)(=O)=O (centres undefined) | > 195 µM | 
99 | CC(C)c1nc(CN2CCCC(Cn3cncn3)C2)cs1 (centres undefined) | > 195 µM | 
100 | Cl.NC(=O)COc1ccc(CNCc2ccc(F)c(F)c2)cc1 | > 195 µM | Percent Effect [6]: 13.17%
101 | CO[C@H]1CCN(Cc2ccoc2)C[C@@H]1Cc1ccccc1.O=C(O)C(F)(F)F | > 195 µM | pIC50 [7]: 5.889; IC50 ([7]; Plasmodium falciparum): 1.2 µM
